Source: patent publication US20130236904A1, “METHOD FOR SCREENING FOR MATERIALS FOR PROMOTING THE DIFFERENTIATION OF SKIN CELLS” (AMOREPACIFIC CORPORATION, priority 2010, published 2013)

Tested on: DUOX 1 gene
Experiment: DUOX 1 gene expression by calcium concentration (Q-RT-PCR)
Type: cell-based
Settings: normal human epidermal keratinocytes, 1.2 mM calcium (high calcium group) vs 120 μM (control), 24 hours; FIG. 1
Experimental: Normal human epidermal keratinocytes (human epidermal neonatal keratinocyte cells) are purchased from Lonza, Inc. (Walkersville, Md., USA) and subcultured, and then incubated in a CO2 incubator under a condition of 37° C. and 5% CO2. Cell culture is prepared according to the instructions of Lonza, Inc. (Walkersville, Md., USA). KGM-2 bullet kit [bovine pituitary extract (BPE), 2 ml), human epidermal growth factor (hEGF, 0.5 ml), insulin (0.5 ml), hydrocortisone (0.5 ml), transferrin (0.5 ml), epinephrine (0.5 ml), gentamycin sulfate+amphofericin B (GA-1000, 0.5 ml)] are added to KBM-2 (Clonetics CC-3103) medium (500 ml).
120 μM and 1.2 mM Calcium are added to the culture medium of human epidermal keratinocytes, respectively, and the cells are incubated for 24 hours. Each of them is used as a low calcium group (control group) and a high calcium group (test group). […] The isolated RNA is purified once more using an RNA kit (Qiagen RNeasy kit, Qiagen, Valencia, Calif.) and RNA quality is verified using Agilent 2100 BioAnalyzer (Agilent Technologies, Santa Clara, Calif., USA). cDNA is synthesized from the isolated RNA using a reverse transcription kit (Superscript Reverse Transcriptase (RT) II kit, Invitrogen, Carlsbad, Calif.), and expression of various NOX genes is quantitatively analyzed by means of real time-reverse transcription polymerase chain reaction (Q-RT-PCR). […]

[Ca+2] [calcium, Calcium]
expression of DUOX 1 gene: more remarkably increased
